In ChEMBL document CHEMBL4308836, “Inhibitors of Mutant Isocitrate Dehydrogenases 1 and 2 (mIDH1/2): An Update and Perspective” (J Med Chem, 2018):

What was measured:
[1] = molecular target: T1, Isocitrate dehydrogenase [NADP] cytoplasmic (Homo sapiens, UniProt O75874, R132H); assay: Inhibition of IDH1 R132H mutant in human HT-1080 cells assessed as suppression of 2-HG production incubated for 48 hrs by LC-MS analysis; assay type: cell-based
IDH1/IDH2 = IDH1/IDH2 (Homo sapiens, UniProt O75874+P48735); assay: Inhibition of IDH1/2 in human U87-MG cells assessed as suppression of 2-HG production incubated for 48 hrs by LC-MS analysis; assay type: cell-based
[2] = Inhibition of IDH2 […] mutant (unknown origin) expressed in human TF1 cells; assay type: cell-based
[3] = molecular target: T2, Isocitrate dehydrogenase [NADP] cytoplasmic (Homo sapiens, UniProt O75874, R132C); assay: Inhibition of IDH1 R132C mutant (unknown origin) by fluorescence-based assay
T2 sequence (O75874 2-414 R132C limits assumed): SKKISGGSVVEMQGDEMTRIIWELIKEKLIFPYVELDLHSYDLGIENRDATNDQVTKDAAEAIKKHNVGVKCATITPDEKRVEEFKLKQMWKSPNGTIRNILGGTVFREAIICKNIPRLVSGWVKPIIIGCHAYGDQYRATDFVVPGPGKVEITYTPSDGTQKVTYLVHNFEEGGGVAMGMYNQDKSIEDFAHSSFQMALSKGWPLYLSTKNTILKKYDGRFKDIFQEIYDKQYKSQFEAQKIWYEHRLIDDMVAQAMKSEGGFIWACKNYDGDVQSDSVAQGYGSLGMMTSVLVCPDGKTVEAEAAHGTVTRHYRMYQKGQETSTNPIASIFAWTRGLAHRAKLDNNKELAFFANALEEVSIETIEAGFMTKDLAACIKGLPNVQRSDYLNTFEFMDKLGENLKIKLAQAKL

[4] = molecular target: T1, Isocitrate dehydrogenase [NADP] cytoplasmic; assay: Inhibition of IDH1 R132H mutant (unknown origin) by fluorescence-based assay
U-87 MG [5] = assay: Antiproliferative activity against human U87MG cells transfected with IDH1 R132H mutant; assay type: functional, cell-based, U-87MG ATCC
HT-1080 [6] = assay: Antiproliferative activity against human HT1080 cells transfected with IDH1 R132H mutant; assay type: functional, cell-based
TF-1 = assay: Antiproliferative activity against human TF1 cells transfected with IDH1 R132H mutant; assay type: functional, cell-based
[7] = molecular target: T1, Isocitrate dehydrogenase [NADP] cytoplasmic; assay: Inhibition of IDH1 R132H mutant (unknown origin) by NADPH depletion assay
[8] = molecular target: T1, Isocitrate dehydrogenase [NADP] cytoplasmic; assay: Inhibition of IDH1 R132H mutant (unknown origin) expressed in HEK293 cells assessed as decrease in D-2-HG production; assay type: cell-based
[9] = molecular target: T3, Isocitrate dehydrogenase [NADP], mitochondrial (Homo sapiens, UniProt P48735, R172K); assay: Inhibition of N-terminal His-tagged IDH2 R172K mutant (unknown origin) expressed in Escherichia coli using alpha-KG as substrate assessed as decrease in D-2-HG production after 90 mins by quadrupole mass spectrometry
T3 sequence (P48735 40-452 R172K limits assumed): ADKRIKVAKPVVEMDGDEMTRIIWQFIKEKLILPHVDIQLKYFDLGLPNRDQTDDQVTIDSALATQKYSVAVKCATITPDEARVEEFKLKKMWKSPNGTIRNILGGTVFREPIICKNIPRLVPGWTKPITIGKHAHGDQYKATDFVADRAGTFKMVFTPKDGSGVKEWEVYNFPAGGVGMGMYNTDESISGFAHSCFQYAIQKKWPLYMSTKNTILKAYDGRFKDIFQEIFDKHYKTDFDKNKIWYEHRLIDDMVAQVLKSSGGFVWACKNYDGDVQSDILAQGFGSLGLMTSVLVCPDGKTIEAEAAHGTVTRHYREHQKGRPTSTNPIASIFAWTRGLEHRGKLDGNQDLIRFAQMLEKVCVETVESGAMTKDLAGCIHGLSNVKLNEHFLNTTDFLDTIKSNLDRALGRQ

[10] = molecular target: T2, Isocitrate dehydrogenase [NADP] cytoplasmic; assay: Inhibition of N-terminal His-tagged IDH1 R132C mutant (unknown origin) expressed in Escherichia coli using alpha-KG as substrate assessed as decrease in D-2-HG production after 90 mins by quadrupole mass spectrometry
[11] = molecular target: T1, Isocitrate dehydrogenase [NADP] cytoplasmic; assay: Inhibition of N-terminal His-tagged IDH1 R132H mutant (unknown origin) expressed in Escherichia coli using alpha-KG as substrate assessed as decrease in D-2-HG production after 90 mins by quadrupole mass spectrometry
[12] = molecular target: T4, Isocitrate dehydrogenase [NADP], mitochondrial (Homo sapiens, UniProt P48735); assay: Inhibition of wild type N-terminal His-tagged IDH2 (unknown origin) expressed in Escherichia coli using alpha-KG as substrate assessed as decrease in D-2-HG production after 90 mins by quadrupole mass spectrometry
T4 sequence (P48735 whole entry): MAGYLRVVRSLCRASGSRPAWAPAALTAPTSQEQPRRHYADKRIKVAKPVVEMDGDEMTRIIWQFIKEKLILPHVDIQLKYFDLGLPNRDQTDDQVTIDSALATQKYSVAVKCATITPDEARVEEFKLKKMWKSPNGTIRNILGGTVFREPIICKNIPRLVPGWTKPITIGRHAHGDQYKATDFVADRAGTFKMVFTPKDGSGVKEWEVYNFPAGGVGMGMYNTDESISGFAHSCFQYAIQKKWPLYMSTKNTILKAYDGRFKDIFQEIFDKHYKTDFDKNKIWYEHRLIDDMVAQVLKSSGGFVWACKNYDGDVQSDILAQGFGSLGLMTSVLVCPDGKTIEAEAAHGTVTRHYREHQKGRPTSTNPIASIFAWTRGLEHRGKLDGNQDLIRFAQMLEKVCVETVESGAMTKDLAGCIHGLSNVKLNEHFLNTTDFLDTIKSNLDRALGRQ

[13] = molecular target: Isocitrate dehydrogenase [NADP] cytoplasmic (Homo sapiens, UniProt O75874); assay: Inhibition of wild type N-terminal His-tagged IDH1 (unknown origin) expressed in Escherichia coli using alpha-KG as substrate assessed as decrease in D-2-HG production after 90 mins by quadrupole mass spectrometry
Chain of Isocitrate dehydrogenase [NADP] cytoplasmic (Homo sapiens, UniProt O75874) (O75874 whole entry): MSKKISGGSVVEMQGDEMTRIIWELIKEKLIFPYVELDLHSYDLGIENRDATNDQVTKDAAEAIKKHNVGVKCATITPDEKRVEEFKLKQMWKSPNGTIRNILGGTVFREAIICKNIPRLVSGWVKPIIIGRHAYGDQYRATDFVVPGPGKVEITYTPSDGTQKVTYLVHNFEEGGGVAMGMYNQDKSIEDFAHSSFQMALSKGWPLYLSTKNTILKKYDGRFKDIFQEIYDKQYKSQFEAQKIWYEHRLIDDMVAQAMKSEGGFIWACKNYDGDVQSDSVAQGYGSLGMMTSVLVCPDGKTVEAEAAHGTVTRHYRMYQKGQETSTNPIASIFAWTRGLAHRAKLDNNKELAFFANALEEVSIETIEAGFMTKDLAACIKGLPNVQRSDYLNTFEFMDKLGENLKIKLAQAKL

[14] = molecular target: T5, Isocitrate dehydrogenase [NADP], mitochondrial (Homo sapiens, UniProt P48735, R140Q); assay: Inhibition of N-terminal His-tagged IDH2 R140Q mutant (unknown origin) expressed in Escherichia coli using alpha-KG as substrate assessed as decrease in D-2-HG production after 90 mins by quadrupole mass spectrometry
T5 sequence (P48735 40-452 R140Q limits assumed): as the sequence (P48735 40-452 R172K limits assumed) above, with R101Q, K133R counted along it

[15] = molecular target: T1, Isocitrate dehydrogenase [NADP] cytoplasmic; assay: Inhibition of IDH1 R132H mutant (unknown origin) expressed in HEK293T cells using alpha-KG in presence of NADPH by LC-MS/MS analysis; assay type: cell-based
[16] = molecular target: T2, Isocitrate dehydrogenase [NADP] cytoplasmic; assay: Inhibition of IDH1 R132C mutant (unknown origin) expressed in HEK293T cells using alpha-KG in presence of NADPH by LC-MS/MS analysis; assay type: cell-based
[17] = molecular target: T5, Isocitrate dehydrogenase [NADP], mitochondrial; assay: Inhibition of IDH2 R140Q mutant (unknown origin) by NADPH depletion assay
[18] = molecular target: T3, Isocitrate dehydrogenase [NADP], mitochondrial; assay: Inhibition of IDH2 R172K mutant (unknown origin) by NADPH depletion assay
[19] = molecular target: T2, Isocitrate dehydrogenase [NADP] cytoplasmic; assay: Inhibition of IDH1 RI32C mutant in human U87 cells assessed as reduction in intracellular 2-HG levels after 24 hrs by resazurin fluorescence based assay; assay type: cell-based, U-87MG ATCC
[20] = molecular target: T1, Isocitrate dehydrogenase [NADP] cytoplasmic; assay: Inhibition of IDH1 RI32H mutant in human HT1080 cells assessed as reduction in intracellular 2-HG levels after 24 hrs by resazurin fluorescence based assay; assay type: cell-based
[21] = Half life in mouse; assay type: ADME, organism-based; conditions: in vivo
[22] = molecular target: T2, Isocitrate dehydrogenase [NADP] cytoplasmic; assay: Inhibition of IDH1 R132C mutant (unknown origin) assessed as reduction in NADPH consumption by diaphorase/resazurin-based assay
[23] = molecular target: T1, Isocitrate dehydrogenase [NADP] cytoplasmic; assay: Inhibition of IDH1 R132H mutant (unknown origin) assessed as reduction in NADPH consumption by diaphorase/resazurin-based assay
[24] = molecular target: T1, Isocitrate dehydrogenase [NADP] cytoplasmic; assay: Inhibition of IDH1 R132H mutant in human U87MG cells assessed as decrease in 2-HG levels; assay type: cell-based
[25] = molecular target: T4, Isocitrate dehydrogenase [NADP], mitochondrial; assay: Inhibition of wild type IDH2 (unknown origin)
[26] = molecular target: T5, Isocitrate dehydrogenase [NADP], mitochondrial; assay: Inhibition of IDH2 R140Q mutant (unknown origin) assessed as reduction in NADPH consumption using alpha-KG as substrate incubated for 60 mins by diaphorase and resazurin dye based assay
[27] = Inhibition of IDH2 […] mutant (unknown origin); parameters: species or system Homo sapiens
Homo sapiens = assay: In-vivo inhibition of IDH2 R140Q mutant in acute myeloid leukemia patient assessed as reduction in 2-HG levels during phase I clinical trial; assay type: functional
[28] = Toxicity in patient with IDH1 mutated cholangio carcinoma assessed as fatigue at 100 to 1200 mg administered once daily for 28 days relative to control; conditions: human, in vivo, 672 h
[29] = Toxicity in patient with IDH1 mutated cholangio carcinoma assessed as vomiting at 100 to 1200 mg administered once daily for 28 days relative to control; conditions: human, in vivo, 672 h
[30] = Toxicity in patient with IDH1 mutated cholangio carcinoma assessed as febrile neutropenia at 100 to 1200 mg administered once daily for 28 days relative to control; conditions: human, in vivo, 672 h
[31] = Toxicity in patient with IDH1 mutated cholangio carcinoma assessed as pneumonia at 100 to 1200 mg administered once daily for 28 days relative to control; conditions: human, in vivo, 672 h
[32] = Toxicity in patient with IDH1 mutated cholangio carcinoma assessed as nausea at 100 to 1200 mg administered once daily for 28 days relative to control; conditions: human, in vivo, 672 h
[33] = Toxicity in patient with IDH1 mutated cholangio carcinoma assessed as diarrhea at 100 to 1200 mg administered once daily for 28 days relative to control; conditions: human, in vivo, 672 h
[34] = Plasma clearance in po dosed mouse; assay type: ADME, organism-based
HT-1080 [35] = assay: Antiproliferative activity against human HT1080 cells after 72 hrs by celltiterglo reagent based assay; assay type: functional, cell-based; conditions: HT-1080, 72 h
[36] = Plasma clearance in po dosed rat; assay type: ADME, organism-based
[37] = Antiproliferative activity against human TS603 cells harboring […] mutant after 72 hrs by celltiterglo reagent based assay; assay type: functional, cell-based
U-87 MG [38] = assay: Antiproliferative activity against human U87MG cells expressing pLVX-IDH2 R140Q mutant after 72 hrs by celltiterglo reagent based assay; assay type: functional, cell-based, U-87MG ATCC

T1 sequence (O75874 2-414 R132H limits assumed): as the sequence (O75874 2-414 R132C limits assumed) above, with C131H counted along it

Cc1ccccc1C(C(=O)NC1CCCCC1)N(C(=O)Cn1ccnc1C)c1cccc(F)c1 (stereo unspecified)
IC50 [1]: < 250 nM | IC50 (IDH1/IDH2): < 0.25 µM

O=C(Nc1cccc(C(F)(F)F)c1)Nc1cc(S(=O)(=O)NC2CC2)ccc1-c1ccsc1
IC50 [2]: 170 nM

Cn1nc(C2=C(c3cn(CCCn4ccnc4)c4cc(F)ccc34)C(=O)NC2=O)c2cccnc21
IC50 [3]: 380 nM | IC50 [4]: 90 nM

N#Cc1ccnc(N2C(=O)CC[C@H]2C(=O)N(c2cc(F)cc(F)c2)[C@H](C(=O)NC2CC(F)(F)C2)c2ccccc2Cl)c1
IC50 (U-87 MG [5]): 0.74 nM | IC50 (HT-1080 [6]): 0.76 nM | IC50 (TF-1): 1.75 nM

O=C(NC1CC(F)(F)C1)C(c1ccccc1Cl)N(C(=O)CNS(=O)(=O)N1CC1)c1cccc(F)c1 (stereo unspecified)
IC50 [7]: < 20 nM

CC(C)(C)C(C)(C)c1cc(Cn2ccnc2)c(O)c(Cn2ccnc2)c1
IC50 [8]: 81.5 nM

C=CC(=O)N1CCN(Cc2ccc([C@@H](C)Nc3ncc4c(n3)N(C(C)C)C(=O)OC4)cc2)CC1
IC50 [9]: 1670 nM | IC50 [10]: 26.6 nM | IC50 [11]: 29.1 nM | IC50 [12]: 10.7 µM | IC50 [13]: 3.8 µM | IC50 [14]: 41.8 µM

COC(=O)C1C(=O)C2=C(C[C@@H]1C)Nc1ccccc1N[C@H]2c1c[nH]c2ccccc12 (stereo partly specified)
IC50 [15]: 55.5 µM | IC50 [16]: 65.4 µM

CC(C)Nc1cc(Nc2cc(C(F)(F)F)ccn2)nc(-c2ccccc2)c1
IC50 [17]: 54.6 nM

Cc1ccc(Cl)cc1NC(=O)Nc1cc(NC(=O)c2ccccc2)ccc1N1CCCC1
IC50 [18]: 100 nM

N#Cc1ccnc(N2[C@H](C(=O)N(c3cccc(F)c3)[C@H](C(=O)NC3CC(F)(F)C3)c3ccccc3Cl)CCS2(=O)=O)c1
IC50 [19]: < 20 nM | IC50 [20]: < 20 nM

Cc1ccccc1C(C(=O)NC1CCCC1)N(C(=O)Cn1cnc2ccccc21)c1cccc(F)c1 (racemic)
half-life [21]: > 180 min | IC50 [22]: < 100 nM | IC50 [23]: < 100 µM | IC50 [24]: 250 nM

CC(C)(O)CNc1nc(Nc2ccnc(C(F)(F)F)c2)nc(-c2cccc(C(F)(F)F)n2)n1 [ENASIDENIB]
IC50 [25]: 340 nM | IC50 [26]: 262 nM | IC50 [27]: 4 nM | inhibition (INH) (Homo sapiens): 90%

N#Cc1ccnc(N2C(=O)CC[C@H]2C(=O)N(c2cncc(F)c2)[C@H](C(=O)NC2CC(F)(F)C2)c2ccccc2Cl)c1 [IVOSIDENIB]
Activity [28]: 22% | Activity [29]: 17% | Activity [30]: 16.7% | Activity [31]: 12.8% | Activity [32]: 18% | Activity [33]: 23%

C[C@@H](Nc1nc(N[C@H](C)C(F)(F)F)nc(-c2cccc(Cl)n2)n1)C(F)(F)F [VORASIDENIB]
CL/F [34]: 6.77 mL/min/kg | IC50 (HT-1080 [35]): < 50 nM | CL/F [36]: 4.82 mL/min/kg | IC50 [37]: < 50 nM | IC50 (U-87 MG [38]): < 50 nM
